Results on two compounds are retold here after ChEMBL document CHEMBL3997833, “Efficient synthesis of α-fluoromethylhistidine di-hydrochloride and demonstration of its efficacy as a glutathione S-transferase inhibitor” (Bioorg Med Chem Lett, 2017).

Data set [1] has as its system GST (glutathione S-transferase). The data set can be described thus: Inhibition of Schistosoma japonicum C-terminal His6-tagged GST expressed in Escherichia coli BL21(DE3) assessed as reduction in GSH transfer activity by measuring residual activity at 10 mM using GSH/CDNB co-substrate mixture preincubated for 10 mins followed by substrate addition by colorimetric method relative to control. The conditions noted are these: probe GSH/CDNB co-substrate mixture, read-out: Activity.

Data set [2] shares this test system. As to the kind of experiment: Inhibition of Schistosoma japonicum C-terminal His6-tagged GST expressed in Escherichia coli BL21(DE3) assessed as reduction in GSH transfer activity by measuring residual activity at 150 uM using GSH/CDNB co-substrate mixture preincubated for 10 mins followed by substrate addition by colorimetric method relative to control. Particulars: probe GSH/CDNB co-substrate mixture, read-out: Activity.

Consider `Nc1ccc(C(=O)O)cc1` [AMINOBENZOIC ACID], for which the activity at 10000 µM in data set [1] was found to be 33%.
As to `N[C@@](CF)(Cc1cnc[nH]1)C(=O)O`, the activity at 150 µM in data set [2] came out at 57%.
